Test results: patent US20230174584A1, “Antibiotic Compounds” (priority 2019, published 2023)
Like-named read-outs stand apart in the source and are kept apart here.

Columns and labels:
[1] = system: MRSA USA 300; test: Resistance development serial passage assay; type: cell-based, Staphylococcus aureus; conditions: MRSA serially passaged over 30 days in sub-lethal antibiotic concentrations
Experimental: (§1) FIG. 3 illustrates the results obtained when selected compounds were assessed using a resistance development serial passage assay. A) Daily fold-increase of MIC compared to initial MIC against MRSA USA 300 grown in sub-lethal concentrations of daptomycin, compound 5 or compound 16 over 30 days. B). Daily fold-increase of MIC compared to initial MIC against VRE E155 grown in sub-lethal concentrations of daptomycin, compound 5 or compound 16 over 30 days.
(§2) From glycerol stocks, bacterial strains were cultured on blood agar plates and incubated overnight at 37° C. A single colony was grown to exponential phase (OD600=0.5) in TSB+0.002% p80 and diluted 1:100 in fresh media. In polypropylene 96-well microtiter plates, antibiotics were added in biological triplicates and serial diluted 2-fold by transfer and mixing from one well to the next to achieve a final volume of 50 μL per well. An equal volume of bacterial suspension was added to the wells and plates were incubated overnight at 37° C. […] This procedure was repeated for 30 days and the MIC was recorded daily. Cultures containing daptomycin were supplemented with 50 mg L^−1 CaCl2 and 10 mg L^−1 MgSO4. The experiment was performed in biological replicates and for each replicate the MIC was determined from the median of a minimum of triplicates.

[2] = system: VRE E155; test: Resistance development serial passage assay; type: cell-based, Enterococcus faecium; conditions: VanA-type VRE strain serially passaged over 30 days in sub-lethal antibiotic concentrations
Experimental: as §1, §2

[3] = system: HepG2 human hepatocellular carcinoma cells; test: Cytotoxicity assay for HepG2 (MTT); type: cell-based
Experimental: (§3) Mammalian cytotoxicity assays were performed by Cyprotex. Cytotoxicity was assessed using the MTT assay. Briefly, HepG2 human hepatocellular carcinoma cells (100 μL per well) were plated on black-walled clear-bottomed polystyrene 96-well tissue culture treated plates 24 h prior to dosing the cells. The cells were dosed with test compound (dissolved in 0.5% DMSO in growth media containing 10% FBS) at a range of concentrations (0.04 μM, 0.1 μM, 0.4 μM, 1 μM, 4 μM, 10 μM, 40 μM, 100 μM). After 23 h period the cells were loaded with the MTT dye (yellow; 3-(4,5-dimethyl-2-thiazolyl)-2,5-diphenyl-2H-tetrazolium bromide) followed by an additional 1 h incubation (resulting in a total incubation time with antibiotics of 24 h). Subsequently, the plates are dried and solubilized in DMSO followed by scanning at 570 nm using a microplate absorbance reader. Cell viability is determined by conversion of the soluble MTT to insoluble formazan (purple) by mitochondrial […] in live cells. Production of formazan indicates […]. Carbonyl cyanide 3-chlorophenylhydrazone is used as no response control and chlorpromazine is used as control known to be cytotoxic. Solvent control wells (0.5% DMSO in growth media containing 10% FBS) are then used to determine significance limits for wells that have a greater than expected fraction of low or high responders. The minimum effective concentration is determined from the lowest concentration whose mean value exceeds the significance level, provided either a clear dose-response relationship is observed, or at least two consecutive concentration points are above the significance level. AC50 values are also determined provided a clear dose-response relationship is observed. Experiment was performed in triplicates.

[4] = Cytotoxicity assay for HepG2 (MTT); type: cell-based, human; conditions: human
Experimental: as §3

CCCCCCCCCC(=O)N[C@@H](Cc1c[nH]c2ccccc12)C(=O)N[C@H](CC(N)=O)C(=O)N[C@@H](CC(=O)O)C(=O)N[C@@H]1C(=O)NCC(=O)N[C@@H](CCCN)C(=O)N[C@@H](CC(=O)O)C(=O)N[C@H](C)C(=O)N[C@@H](CC(=O)O)C(=O)NCC(=O)N[C@H](CO)C(=O)N[C@@H]([C@H](C)CC(=O)O)C(=O)N[C@@H](CC(=O)c2ccccc2N)C(=O)O[C@@H]1C [daptomycin, reference compound]
resistance induction, fold-increase of MIC compared to initial MIC [1]: 16 fold | resistance induction, fold-increase of MIC compared to initial MIC [2]: 128 fold

CN(C)CCCN1c2ccccc2Sc2ccc(Cl)cc21 [Chropromazine]
Direction of response (↑↓) [3]: ↓ | MEC ([3]; human, 24 h): 12.4 µM | AC50 at 24 h [4]: 19 µM

N#CC(C#N)=NNc1cccc(Cl)c1 [carbonyl cyanide 3-chlorophenylhydrazone]
AC50 at 24 h ([4]; HepG2 human hepatocellular carcinoma cells, MTT, HepG2, 24 h, 10% FBS, n = 3, read-out: AC50): > 100 µM
